We go through 1 molecule from patent US10028956B2, “Methods of treating various cancers using an AXL/cMET inhibitor in combination with other agents” (Ignyta, Inc., priority 2013, dated 2018).

Test [1] concerns NIH3T3/AXL tumor xenografts. Briefly: Anti-tumor efficacy in NIH3T3/AXL tumor xenografts. In kind it is in vivo, mice. The settings on record: 0.3, 1 or 10 mg/kg PO qd, all doses tested. How it is done: The engineered NIH3T3/AXL cell line was generated as follows. The human AXL cDNA was subcloned into the pQCXIP vector and the sequences were confirmed by sequencing at Children's Hospital of Philadelphia. PT67 cells (5×10^5) in 4 mL DMEM+10% FBS were seeded in each well of 6-well plates (Cat^#353046, Becton Dickinson, Franklin Lakes, N.J.) and cultured at 37° C. in a humidified incubator with 5% CO2 overnight. The cells were transfected with 2 μg of pQCXIP-AXL with Lipofectamine™ 2000 (Cat#52887, Invitrogen, Carlsbad, Calif.) transfection reagent per the manufacturer's protocol. In brief, the DNA in 500 μL culture media was mixed with 500 μL media containing 20 μL Lipofectamine™ 2000 transfection reagent, and the mixture was incubated at room temperature for 20 minutes. […]
NIH3T3/AXL cells were collected and resuspended in DMEM medium at density of 5×10^7/mL. […] The mice were monitored and the tumor sizes were measured. […] The length (L) and width (W) of each tumor were measured with a vernier caliper and the mouse body weight was determined every two to three days. Tumor volumes were calculated with the formula of 0.5236*L*W*(L+W)/2. […] Plasma and tumor samples were obtained at 2 hours post final dose at each dose level, and the compound levels in plasma and tumor lysates were measured by LC-MS/MS.

For test [2], the system named is 4T1-Luc2 murine mammary carcinoma cells. Put plainly: 4T1-Luc2 systemic dissemination. The class given is in vivo, mice. As for the experimental part:
The murine breast cancer cell line 4T1-luciferase tagged cell line generated by stable transfection of the firefly luciferase gene expressed from the SV40 promoter was purchased from Caliper Life Sciences. The cells were grown in DMEM medium supplemented with 10% fetal bovine serum (FBS, Cat^# SH3007003, Hyclone, Logan, Utah). D-Luciferin firefly/potassium salt (Cat. # L-8220) was purchased from Biosynth International, Inc., Itasca, Ill.). Female Balb-c mice (6-8 weeks) were purchased from Charles River laboratories. […] Two days later, the mouse body weights were measured twice a week and the mice were subjected for full body in vivo imaging thrice a week. Treatments were given for a total of 23 days, with 21 days post tumor cell seeding. Bioluminescence image analysis was performed at the end of the study using a Caliper Life Sciences (Xenogen) Spectrum in vivo imaging machine. Each cage of five mice was anesthetized using isofluorane and imaged for a series of time points from 0.5-5 minutes max. Image analysis was performed using Living Image Software (vs. 4.0, 2010) using subjective but equally sized gates or regions of interest (ROIs) overlaid on each animal image. Counts were converted to average radiance or mean photon flux; expressed as photons per second per cm2 of surface area, (p/s/cm2/sr). […]

As for `COc1cc2nccc(Oc3ccc(NC(=O)c4cn(C(C)C)c(=O)n(-c5ccc(F)cc5)c4=O)cc3F)c2cc1OC` [CEP-40783, 3-(4-Fluorophenyl)-1-isopropyl-2,4-dioxo-1,2,3,4-tetrahydropyrimidine-5-carboxylic acid [4-(6,7-dimethoxyquinolin-4-yloxy)-3-fluorophenyl]-amide], the “anti-tumor efficacy (tumor volume)” value in test [1] is given as “complete tumor regressions”. Further, the “systemic 4T1 mammary tumor dissemination” value is “significant, albeit of lesser magnitude, reduction” in test [2] (1 mg/kg po qd); “highly significant reductions” in test [2] (10 mg/kg and 30 mg/kg po qd).
